Values belong to the compound of their own block, whether it stands above or below them.
Columns and labels:
S. mutans [1] = assay: Bacterial morphology by high-resolution scanning electron microscopy; format: cell-based, Streptococcus mutans; conditions: overnight treatment with nanostructures
Description: The effect of Fmoc-F5-Phe nanostructures on bacterial morphology was studied using High-Resolution Scanning Electron Microscopy as follows.
Bacterial samples were centrifuged at 5000 rpm for 5 minutes, washed thrice in PBS, and fixed in 2.5% glutaraldehyde in PBS for 1 hour. The samples were then washed thrice in PBS and fixed in 1% OsO4 in PBS for 1 hour, followed by a dehydration series with ethanol. The samples were then left in absolute ethanol for 30 minutes and placed onto glass coverslips, followed by critical point drying and coating with gold. Micrographs were recorded using a JEOL JSM-6700F FE-SEM scanning electron microscope operating at 10 kV. The obtained micrographs shown in FIG. 1I are representative of three independent experiments.

S. mutans [2] = assay: Direct-contact kinetic analysis (direct-contact test) of polymerized composite materials; format: cell-based, Streptococcus mutans; conditions: 1 hour direct contact
Description: In order to evaluate the antimicrobial capabilities of the resin composite restoratives while simulating its clinical use, a direct-contact test (DCT) was carried out. This spectroscopic microplate reader based test, designed for compounds that are non-diffusible and non-soluble in water, allows measuring the effect of direct contact between the evaluated material and bacterial viability and growth. Four different W/W % samples of the resin composite material were evaluated at 0.25, 0.5, 1 and 2% Fmoc-F5-Phe nano-structure concentrations, and Filtek™ Ultimate Flow with no Fmoc-F5-Phe nano-structures additives, treated in the same manner, served as a control. Streptococcus mutans (S. mutans) was chosen for this evaluation as this strain is commonly found in the human oral cavity and is a significant caries-causing pathogen. Following direct contact of S. mutans bacteria with the Fmoc-F5-Phe incorporated materials the subsequent proliferation of the bacteria, was evaluated by optical density measurements over eighteen hours.
This analysis was carried out as described in Weiss et al. Endod. Dent. Traumatol. 12, 179-84 (1996), with slight modification.
S. mutans bacteria were grown in anaerobic conditions in BHI media for 48 hours and then diluted to an OD600 of 0.6 in BHI. […] were deposited onto inserts (concaved plastic surfaces designed to be suspended in the wells of 96 well-plates) coated on one side with each of the nano-assembly incorporated resin composite restoratives (four different W/W % samples of the resin composite material were evaluated at 0.25, 0.5, 1 and 2% concentrations of each nanostructure) and then incubated for one hour at 37° C. Following incubation […] was added to each well so that the inserts were submerged in the BHI and the plates were sealed to ensure anaerobic conditions. Kinetic growth inhibition was determined by optical density measurements (650 nm) using a Biotek Synergy HT microplate reader.

[3] = Shear-Punch Strength Test of nanostructure-incorporated resin composite restorative; format: physicochemical
Description: The effect of the incorporation of peptide nanostructures in the polymerized dental resin composite restorative on the structural integrity of the resin composite restorative was tested. A Shear-Punch Test was carried out on samples incorporating varying weight ratios of Fmoc-Pentafluoro-Phe.
A Shear-Punch Strength Test was performed according to Mount et al., Aust. Dent. 1996; J 41: 116-23. Shear Punch Strength Test. Briefly, a composition comprising the nanostructures dispersed in a pre-polymerized resin composite restorative was placed in 0.8 mm thick wash holders and light-cured to form flat parallel surfaces evenly supported and restrained by the holder. The samples were then placed in an Instron device (model 4502) for punching under a crosshead speed of 0.5 mm per minute. The maximum force applied (Fmax) was calculated as the mean of 10 different samples for each w/w % concentration of the tested nanostructure. Statistical analysis was carried out via one-way analysis of variance and Dunnett's post hoc test.

S. mutans [4] = assay: Minimum inhibitory concentration and kinetic growth inhibition analysis of nanostructures; format: cell-based, Streptococcus mutans
Description: The antibacterial capabilities of the obtained nanostructures were evaluated against S. mutans via a minimum inhibitory concentration (MIC) analysis and by kinetic growth inhibition analysis, as follows. S. mutans bacteria were grown under anaerobic conditions in brain heart infusion (BHI) medium (BD Difco) for 48 hours and then diluted to OD600 of 0.01 or 0.25 in BHI. Nanostructures samples, at an initial concentration of 8 mM, were added to the bacterial samples in 96-well plates in serial 2-fold dilutions, which were sealed to ensure anaerobic conditions. Kinetic growth inhibition was determined by optical density measurements (650 nm) using a Biotek Synergy HT microplate reader. The minimum inhibitory concentration (MIC) was determined using the microdilution assay, and evaluation of the reduction in colony-forming units was obtained by plating and counting bacterial samples before and after overnight treatment. […] The ability of the nanostructures to inhibit bacterial growth at a higher bacterial load, similar to that of an active infection was also tested. S. mutans cultures were grown until mid-log phase and were then treated with 2 mM samples of the nanostructures.

S. mutans [5] = assay: Live/Dead viability analysis after contact with composite restoratives; format: cell-based, Streptococcus mutans
Description: To directly assess bacterial viability, treated and control bacteria were subjected to Live/Dead viability analysis, using the Live/Dead backlight bacterial viability kit and accompanying instructions, as follows. S. mutans bacteria were grown in anaerobic conditions in BHI media for 48 hours and then diluted to an OD600 of 0.6 in BHI. 100 μl of these samples were deposited onto inserts coated on one side with each of the polymeric matrices and then incubated for one hour at 37 degrees. Following incubation […] was added to each well and the plates were sealed to ensure anaerobic conditions. At each time point (initial incubation, 1 hour and 24 hours) samples were taken and washed with saline, incubated for 15 minutes in a solution containing Propidium iodide and Syto9 (L13152 LIVE/DEAD® BacLight™ Bacterial Viability Kit, Molecular Probes, OR, USA) and washed with saline again. Fluorescence emission was detected using an ECLIPSE E600 (Nikon, Japan).

S. mutans [6] = assay: SYTOX Blue membrane permeation assay; format: cell-based, Streptococcus mutans; conditions: nanostructures, 3 hours incubation at 37° C.
Description: The effect of Fmoc-F5-Phe nanostructures on bacterial membrane permeation was also supported by a SYTOX Blue membrane permeation assay. SYTOX Blue is a cationic dye that cannot enter an intact cell unless its membrane is disrupted by external compounds. Inside the cell, SYTOX Blue stain binds to intracellular nucleic acids and fluoresces bright blue when excited with 405 nm violet laser light.
S. mutans bacteria were grown under anaerobic conditions in BHI medium (BD Difco) for 48 hours and diluted to 0.1 OD600. Fmoc-F5-Phe or ultrapure water (100 μL) as control was added to 300 μL of bacteria and incubated for 3 hours in 37° C. The bacterial cells were centrifuged for 5 minutes at 3700 rpm and incubated with 1 μM SYTOX blue (Thermo Fisher Scientific) for 30 minutes at 37° C. The samples were washed three times in PBS and examined by confocal microscopy LSM 510, excited at 405 nm (Zeiss, Germany).

3T3 fibroblasts = assay: MTT cell viability analysis of composite restoratives; format: cell-based; conditions: nanostructure-incorporated composite versus composite alone; 18 hours, 37° C.
Description: (§1) The effect of the incorporation of Fmoc-F5-Phe on the cytotoxicity of the dental composite restoratives was tested. This was carried out by evaluating the effect of each amalgamated composite restorative (containing self-assembled nanostructures as described herein) on the viability of two cell lines; HeLa and 3T3 fibroblasts, using MTT analysis, as follows.
(§2) The 3T3 fibroblast cells and HeLa cells grown in Dulbecco's Modified Eagle's Medium (DMEM) supplemented with 10% fetal calf serum (FBS) (Biological Industries, Israel) were sub-cultured (2×10^5 cells/mL) in 96-well tissue microplates (100 μl per well) and were allowed to adhere overnight at 37° C. Inserts (in quadruplet) coated on one side with each of the nano-assembly incorporated resin composite restoratives were placed into the wells containing the adhered cells. After incubation for 18 hours at 37° C., cell viability was evaluated using the 3-(4,5-dimethylthiazolyl-2)-2,5-diphenyltetrazolium bromide (MTT) assay. Briefly, 10 μL of 5 mg/mL MTT dissolved in PBS was added to each well. After 4 hours incubation at 37° C., 100 μl of the extraction buffer [20% SDS dissolved in a solution of 50% dimethylformamide and 50% DDW (pH 4.7)] were added to each well, and the plates were incubated again at 37° C. for 30 minutes. Finally, color intensity was measured using an ELISA reader at 570 nm. […]

HeLa cells = assay: as above; format: cell-based; conditions: nanostructure-incorporated composite versus composite alone; 18 hours, 37° C.
Description: as §1, §2

S. mutans [7] = assay: Live/Dead (Syto9/Propidium iodide) bacterial viability analysis of nanostructure-treated bacteria; format: cell-based, Streptococcus mutans; conditions: after kinetic analysis with nanostructures
Description: To directly assess bacterial viability, the bacteria were subjected to Live/Dead viability analysis containing Syto9 (indicating live bacteria) and Propidium iodide (PI) (indicating dead bacteria). Following kinetic analysis, the samples were washed thrice with saline, incubated for 15 minutes in a solution containing Syto9 and Propidium iodide (L13152 LIVE/DEAD BacLight Bacterial Viability Kit, Molecular Probes, OR), and washed with saline again. Fluorescence emission was detected using an ECLIPSE E600 fluorescent microscope (Nikon, Japan).

[8] = Occlusal fissure stability and optical property analyses; format: physicochemical; conditions: 2% w/w composite
Description: Occlusal Fissure Stability and Optical Property Analyses were also performed as follows.
Occlusal fissures were made via a diamond bur and then restored utilizing either the 2% nanostructure-containing restorative composites or a control (0%) restorative. The samples were contained for 30 days at 37° C. in sterile PBS. A Spectroshade Micro-MHT dental spectrophotometer normalized to the Vita classical color guide was then utilized to evaluate the color of the tested samples.

[9] = HPLC-based nanostructures release evaluation in sterile saliva; format: physicochemical; conditions: 37° C., 2% w/w composite
Description: Restorative composites incorporating 4 mg of the Fmoc-F5-Phe nanostructures to a final w/w % of 2% were examined following 24, 48 and 72 hours of incubation at 37° C. in sterile saliva.

[10] = Diametral Tensile Strength (DTS) test; format: physicochemical; conditions: 2% w/w nanostructures in Filtek composite; p>0.155
Description: Diametral Tensile Strength (DTS) Test was further performed to verify the difference in tensile properties (tensile strength and stiffness of the specimens characterizing the elasticity of the materials) of the 2% amalgamated material compared to the control (0%), as follows.
Disks (6 mm in diameter, 3 mm in height) of either control resin composite restorative or 2% nanoassembly-incorporated resin composite restorative were prepared in a Teflon mold similar to the specimens used for the punch shear strength. Specimens were loaded up to failure. The linear slope during loading was calculated, indicating the stiffness of the specimen, and the DTS was calculated by: […]
where P is the load at failure (N), D is the specimen diameter (mm), and t is the specimen height (mm).
The specimens were loaded via the above-mentioned loading machine using the same crosshead speed. Statistical analysis was carried out via T-test.

[11] = 0.25-1% w/w nanostructures in Filtek composite
[12] = 2% w/w nanostructures in Filtek composite

Fmax versus control (0%) ([3]; 0.25%, 0.5% and 1% w/w nanostructures in Filtek composite, p≥0.144): no statistically significant difference
Fmax, inferior to control (0%) by ([3]; 2% w/w nanostructures in Filtek composite, p=0.011): 9%
effect on stiffness of the specimen ([3]; nanostructures in Filtek composite, data not shown): no substantial effect
concentration at which overnight incubation completely inhibited bacterial growth (MIC analysis) (S. mutans [4]; self-assembled nanostructures, cultures started at early log phase, overnight): 2000 µM
stability of occlusal fissure restorations ([8]; 30-day incubation at 37° C. in sterile PBS): remained intact and stable
color (Vita shade) versus control ([8]; Spectroshade Micro-MHT spectrophotometer): same Vita shade
amount of nanostructures released ([9]; 24 hours, 4 mg nanostructures): 0.9520 micrograms
released fraction of initial amount of incorporated nanostructures ([9]; 24 hours): less than 0.024%
amount of nanostructures released ([9]; 48 hours): 0.1805 micrograms
released fraction of incorporated nanostructures ([9]; 48 hours): below 0.0046%
amount of nanostructures released ([9]; 72 hours): 0.1088 micrograms
diametral tensile strength and stiffness versus control (0%) [10]: No statistically significant differences
SMILES: O=C(NC(Cc1c(F)c(F)c(F)c(F)c1F)C(=O)O)OCC1c2ccccc2-c2ccccc21 (stereo not drawn) [Fmoc-F5-Phe, Fmoc-Pentafluorophenylalanline]
effect on bacterial morphology (S. mutans [1]): membrane fusing, clumping, and disintegration were abundant
bacterial growth inhibition (S. mutans [2]; [11]): partially inhibit bacterial growth in a dose dependent manner
bacterial growth inhibition (S. mutans [2]; [12]): over 95%
bacterial growth inhibition at higher bacterial load (S. mutans [4]; 2 mM nanostructures added to mid-log phase cultures): inhibited bacterial proliferation
reduction in colony-forming units (S. mutans [4]; nanostructures at 2 mM, overnight, early log phase cultures): 7.2 log(10) CFU/mL
bacterial growth inhibition at lower concentrations (S. mutans [4]; nanostructures below 2 mM, overnight): partially inhibiting growth in a dose-dependent manner
bacterial viability (Live/Dead) (S. mutans [5]; [12]): bacterial cell death
bacterial viability (Live/Dead), persistence of effect (S. mutans [5]; composite with nanostructures, 24 hours): persisted
bacterial viability (Live/Dead) (S. mutans [5]; composite with nanostructures, one hour of treatment, versus Filtek alone): large scale bacterial death
bacteria stained with SYTOX Blue (membrane permeation) (S. mutans [6]): about 90%
effect of incorporation on cell viability (MTT) (3T3 fibroblasts): did not change the effect
effect of incorporation on cell viability (MTT) (HeLa cells): did not change the effect
bacterial viability (Live/Dead) (S. mutans [7]): significant bacterial cell death

SMILES: O=C(N[C@@H](Cc1ccccc1)C(=O)O)OCC1c2ccccc2-c2ccccc21 [Fmoc-Phe, Fmoc-phenylalanine]
bacterial growth inhibition (S. mutans [2]; [11]): inhibited growth in a dose-dependent manner
bacterial growth inhibition (S. mutans [2]; [12]): 60%

Source: patent US20210128414A1, “SELF-ASSEMBLED NANOSTRUCTURES AND COMPOSITE MATERIALS USABLE IN DENTAL APPLICATIONS CONTAINING SAME” (Ramot at Tel-Aviv University Ltd., priority 2018, published 2021)
